Measurements: publication PMC10548512 (Chemical Science, 2023)

How the values were obtained:
H1 ectodomain = details: pH 7.5
[1] = test system: H1N1pdm09 virus (A/Netherlands/602/2009); details: for IC50: 1 h

| SMILES | Competition with fluorescein-labelled S5 for binding to H1 protein (H1 ectodomain) | Infection inhibition in single-concentration screen [1] | Plateau of infection inhibition in dose-response [1] | IC50 [1] |
| --- | --- | --- | --- | --- |
| CC[C@H](C)[C@@H]1NC(=O)CNC(=O)[C@H](CC(N)=O)NC(=O)[C@@H]2CCCN2C(=O)[C@H](C(C)C)NC(=O)[C@H](Cc2ccccc2)NC(=O)[C@H](Cc2ccc(O)cc2)NC(=O)[C@@H]2CCCN2C(=O)[C@H](Cc2ccccc2)NC(=O)[C@H](Cc2ccc(O)cc2)NC(=O)[C@H](CC(C)C)NC(=O)[C@@H]2CSC(=N2)c2cc(ccn2)C[C@@H](C(=O)NCC(N)=O)NC(=O)[C@H](CCC(=O)O)NC(=O)[C@H](CC(C)C)NC(=O)[C@H]([C@@H](C)CC)NC(=O)[C@H](CC(N)=O)NC1=O [M7] | compete | clear infection inhibition | plateau at less than full inhibition | 10.8 nM |
| CC[C@H](C)[C@@H]1NC(=O)[C@H](CO)NC(=O)CNC(=O)CNC(=O)[C@H](CC(=O)O)NC(=O)[C@@H]2CCCN2C(=O)[C@H](Cc2c[nH]c3ccccc23)NC(=O)[C@H](CC(N)=O)NC(=O)[C@H](Cc2ccccc2)NC(=O)[C@H](C(C)C)NC(=O)[C@H](Cc2ccccc2)NC(=O)[C@H](CC(C)C)NC(=O)[C@@H]2CSC(=N2)c2cc(ccn2)C[C@@H](C(=O)NCC(N)=O)NC(=O)[C@H](CCCCN)NC(=O)[C@H](CC(N)=O)NC(=O)[C@H]([C@@H](C)O)NC1=O [M5] | compete | clear infection inhibition | plateau at less than full inhibition | 40.3 nM |
